Where a name gives a salt, the structure may show the parent alone.
Legend:
TBK1 = target: T1, TBK1 (Homo sapiens, UniProt Q9UHD2); experiment: TBK1 inhibition, ADP-Glo Kinase Assay; format: biochemical; details: luminometer
T1 construct: purchased Promega V3991
T1 sequence (Q9UHD2 1-729): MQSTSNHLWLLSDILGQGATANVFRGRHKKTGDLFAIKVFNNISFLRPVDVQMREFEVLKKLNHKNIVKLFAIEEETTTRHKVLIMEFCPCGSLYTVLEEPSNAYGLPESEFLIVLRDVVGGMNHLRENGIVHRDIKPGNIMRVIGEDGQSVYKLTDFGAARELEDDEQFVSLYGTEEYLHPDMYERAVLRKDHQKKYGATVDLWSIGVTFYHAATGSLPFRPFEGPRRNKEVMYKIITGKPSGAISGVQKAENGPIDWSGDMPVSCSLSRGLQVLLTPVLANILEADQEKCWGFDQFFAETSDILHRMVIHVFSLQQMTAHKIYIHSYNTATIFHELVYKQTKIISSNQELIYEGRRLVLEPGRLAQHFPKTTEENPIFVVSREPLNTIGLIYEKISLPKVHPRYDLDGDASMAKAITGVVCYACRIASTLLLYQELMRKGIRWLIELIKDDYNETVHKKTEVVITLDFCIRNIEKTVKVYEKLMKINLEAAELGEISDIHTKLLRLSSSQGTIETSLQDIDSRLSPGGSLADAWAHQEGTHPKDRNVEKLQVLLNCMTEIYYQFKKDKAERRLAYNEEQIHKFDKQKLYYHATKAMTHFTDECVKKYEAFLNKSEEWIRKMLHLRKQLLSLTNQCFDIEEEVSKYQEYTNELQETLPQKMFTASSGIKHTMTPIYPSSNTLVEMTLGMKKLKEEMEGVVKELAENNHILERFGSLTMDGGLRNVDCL
Description: (§1) Inhibition activities on TNIK, IKKε and TBK1 were evaluated using the compounds of Examples 1 to 254.
(§2) The inhibition activities on TNIK, IKKε and TBK1 were measured by a luminometer, TNIK/IKKε/TBK1 Kinase Enzyme System (Promega, Ca# V4158; Invitrogen, PR8031B, Promega, Ca# V3991) and ADP-Glo Kinase Assay using ADP-Glo™ Kinase Analysis Kit (Promega, Ca# V9101) and a kinase reaction buffer [40 mM Tris(pH 7.5), 20 mM MgCl2, 0.1 mg/mL BSA] in accordance with the manufacturer's protocol.

IKKε = target: T2, IKKε (Homo sapiens, UniProt Q14164); experiment: IKKε inhibition, ADP-Glo Kinase Assay; format: biochemical; details: luminometer
T2 construct: purchased Invitrogen PR8031B
T2 sequence (Q14164 1-716): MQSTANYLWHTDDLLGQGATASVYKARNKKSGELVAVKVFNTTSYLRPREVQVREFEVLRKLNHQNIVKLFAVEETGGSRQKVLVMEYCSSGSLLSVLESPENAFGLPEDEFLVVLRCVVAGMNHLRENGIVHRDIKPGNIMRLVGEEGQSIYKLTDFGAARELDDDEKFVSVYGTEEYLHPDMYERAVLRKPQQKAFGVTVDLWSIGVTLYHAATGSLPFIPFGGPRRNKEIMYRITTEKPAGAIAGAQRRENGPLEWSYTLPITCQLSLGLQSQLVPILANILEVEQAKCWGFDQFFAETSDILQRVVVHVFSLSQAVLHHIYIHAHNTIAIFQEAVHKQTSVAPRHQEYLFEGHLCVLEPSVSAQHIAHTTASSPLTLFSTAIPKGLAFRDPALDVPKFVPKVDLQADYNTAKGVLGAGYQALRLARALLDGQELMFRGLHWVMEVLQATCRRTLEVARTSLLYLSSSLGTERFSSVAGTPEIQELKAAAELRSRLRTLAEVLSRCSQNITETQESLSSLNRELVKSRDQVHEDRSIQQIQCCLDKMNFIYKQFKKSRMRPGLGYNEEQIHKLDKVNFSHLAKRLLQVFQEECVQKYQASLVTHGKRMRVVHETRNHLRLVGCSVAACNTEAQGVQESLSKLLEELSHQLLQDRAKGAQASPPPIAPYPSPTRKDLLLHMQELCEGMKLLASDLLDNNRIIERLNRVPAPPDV
Description: as §1, §2

IC50 (TBK1) [µM] | IC50 (IKKε) [µM] | Compound
0.037 | 0.13 | COc1ccc(C(=O)Nc2n[nH]c3ccc(C(=O)NCc4ccco4)cc23)cc1 [Example 2, N-(Furan-2-yl-methyl)-3-(4-methoxybenzamido)-1H-indazole-5-carboxamide]
0.038 | 0.11 | COc1ccc(C(=O)Nc2n[nH]c3ccc(C(=O)NCc4cccs4)cc23)cc1 [Example 3, 3-(4-Methoxybenzamido)-N-(thiophen-2-ylmethyl)-1H-indazole-5-carboxamide]
0.16 | 0.25 | Cn1cc(C(=O)Nc2n[nH]c3ccc(C(=O)NCc4cccs4)cc23)cn1 [Example 7, 3-(1-Methyl-1H-pyrazole-4-carboxamido)-N-(thiophen-2-ylmethyl)-1H-indazole-5-carboxamide]
0.082 | 0.33 | COc1ccc(C(=O)Nc2n[nH]c3ccc(C(=O)NCc4cccs4)cc23)nc1 [Example 8, 3-(5-Methoxypicolinamido)-N-(thiophen-2-ylmethyl)-1H-indazole-5-carboxamide Hydrochloride]
0.025 | 0.055 | O=C(Nc1n[nH]c2ccc(C(=O)NC3(c4cccs4)CC3)cc12)c1ccc(F)cc1 [Example 15, 3-(4-Fluorobenzamido)-N-(1-(thiophen-2-yl)cyclopropyl)-1H-indazole-5-carboxamide]
0.39 | 0.91 | N#CC1(NC(=O)c2ccc3[nH]nc(NC(=O)c4ccc(F)cc4)c3c2)CC1 [Example 16, N-(1-Cyanocyclopropyl)-3-(4-fluorobenzamido)-1H-indazole-5-carboxamide]
0.21 | 1.23 | CCCC(NC(=O)c1ccc2[nH]nc(NC(=O)c3ccc(F)cc3)c2c1)c1cccs1 (centres unmarked) [Example 18, 3-(4-Fluorobenzamido)-N-(1-(thiophen-2-yl)butyl)-1H-indazole-5-carboxamide]
0.49 | 2.91 | Cc1ccc(CNC(=O)c2ccc3[nH]nc(NC(=O)c4ccc(F)cc4)c3c2)s1 [Example 19, 3-(4-Fluorobenzamido)-N-((5-methylthiophen-2-yl)methyl)-1H-indazole-5-carboxamide]
0.31 | 0.35 | CC(C)(NC(=O)c1ccc2[nH]nc(NC(=O)c3ccc(F)cc3)c2c1)c1ccccc1 [Example 20, 3-(4-Fluorobenzamido)-N-(2-phenylpropan-2-yl)-1H-indazole-5-carboxamide]
> 10 | > 10 | O=C(NCc1ccc(C(F)(F)F)cc1)c1ccc2[nH]nc(NC(=O)c3ccc(F)cc3)c2c1 [Example 21, 3-(4-Fluorobenzamido)-N-(4-(trifluoromethyl)benzyl)-1H-indazole-5-carboxamide]
1.41 | 5.58 | O=C(NCC1CC1)c1ccc2[nH]nc(NC(=O)c3ccc(F)cc3)c2c1 [Example 23, N-(Cyclopropylmethyl)-3-(4-fluorobenzamido)-1H-indazole-5-carboxamide]
0.66 | 2.46 | CCCCNC(=O)c1ccc2[nH]nc(NC(=O)c3ccc(F)cc3)c2c1 [Example 24, N-Butyl-3-(4-fluorobenzamido)-1H-indazole-5-carboxamide]
0.42 | 5.87 | CC(C)CCNC(=O)c1ccc2[nH]nc(NC(=O)c3ccc(F)cc3)c2c1 [Example 25, 3-(4-Fluorobenzamido)-N-isopentyl-1H-indazole-5-carboxamide]
0.2 | 0.36 | O=C(NCc1cncs1)c1ccc2[nH]nc(NC(=O)c3ccc(F)cc3)c2c1 [Example 27, 3-(4-Fluorobenzamido)-N-(thiazol-5-ylmethyl)-1H-indazole-5-carboxamide 2,2,2-trifluoroacetate]
0.73 | 2.62 | O=C(NCc1ccccn1)c1ccc2[nH]nc(NC(=O)c3ccc(F)cc3)c2c1 [Example 28, 3-(4-Fluorobenzamido)-N-(pyridin-2-ylmethyl)-1H-indazole-5-carboxamide2,2,2-trifluoroacetate]
> 10 | > 10 | CCC(NCc1ccc2[nH]nc(NC(=O)c3ccc(F)cc3)c2c1)c1cccs1 (centres unmarked) [Example 32]
4.69 | 6.36 | CC(C)CC(NC(=O)c1ccc2[nH]nc(NC(=O)c3ccc(F)cc3)c2c1)c1cccs1 (centres unmarked) [Example 33, 3-(4-Fluorobenzamido)-N-(3-methyl-1-(thiophen-2-yl)butyl)-1H-indazole-5-carboxamide]
0.58 | 1.74 | CCC(C)(NC(=O)c1ccc2[nH]nc(NC(=O)c3ccc(F)cc3)c2c1)c1cccs1 (centres unmarked) [Example 34, 3-(4-Fluorobenzamido)-N-(2-(thiophen-2-yl)butan-2-yl)-1H-indazole-5-carboxamide]
0.28 | 0.93 | O=C(NCc1cccs1)c1ccc2[nH]nc(NC(=O)c3ccc(F)cc3F)c2c1 [Example 35, 3-(2,4-Difluorobenzamido)-N-(thiophen-2-ylmethyl)-1H-indazole-5-carboxamide]
0.00094 | 0.0089 | CN1CCN(c2ccc(C(=O)Nc3n[nH]c4ccc(C(=O)NCc5ccccc5)cc34)cc2)CC1 [Example 40, N-Benzyl-3-(4-(4-methylpiperazin-1-yl)benzamido)-1H-indazole-5-carboxamide]
0.0039 | 0.047 | CCC(NC(=O)c1ccc2[nH]nc(NC(=O)c3ccc(N4CCNCC4)cc3)c2c1)c1ccccc1 (centres unmarked) [Example 41, N-(1-Phenylpropyl)-3-(4-(piperazin-1-yl)benzamido)-1H-indazole-5-carboxamide]
0.0021 | 0.0049 | CC(NC(=O)c1ccc2[nH]nc(NC(=O)c3ccc(N4CCOCC4)cc3)c2c1)c1cccs1 (centres unmarked) [Example 43, 3-(4-Morpholinobenzamido)-N-(1-(thiophen-2-yl)ethyl)-1H-indazole-5-carboxamide]
0.0035 | 0.0031 | CC(NC(=O)c1ccc2[nH]nc(NC(=O)c3ccc(N4CCN(C)CC4)cc3)c2c1)c1cccs1 (centres unmarked) [Example 44, 3-(4-(4-Methylpiperazin-1-yl)benzamido)-N-(1-(thiophen-2-yl)ethyl)-1H-indazole-5-carboxamide]
0.0021 | 0.014 | CN1CCN(c2ccc(C(=O)Nc3n[nH]c4ccc(C(=O)NC(CO)c5cccs5)cc34)cc2)CC1 (centres unmarked) [Example 45, N-(2-Hydroxy-1-(thiophen-2-yl)ethyl)-3-(4-(4-methylpiperazin-1-yl)benzamido)-1H-indazole-5-carboxamide]
0.0015 | 0.022 | O=C(NCc1ccsc1)c1ccc2[nH]nc(NC(=O)c3ccc(N4CCOCC4)cc3)c2c1 [Example 46, 3-(4-Morpholinobenzamido)-N-(thiophen-3-ylmethyl)-1H-indazole-5-carboxamide]
0.0014 | 0.014 | CN1CCN(c2ccc(C(=O)Nc3n[nH]c4ccc(C(=O)NCc5ccsc5)cc34)cc2)CC1 [Example 47, 3-(4-(4-Methylpiperazin-1-yl)benzamido)-N-(thiophen-3-ylmethyl)-1H-indazole-5-carboxamide]
0.0011 | 0.0032 | O=C(Nc1n[nH]c2ccc(C(=O)NC3(c4cccs4)CC3)cc12)c1ccc(N2CCOCC2)cc1 [Example 48, 3-(4-Morpholinobenzamido)-N-(1-(thiophen-2-yl)cyclopropyl)-1H-indazole-5-carboxamide]
0.0025 | 0.0034 | CN1CCN(c2ccc(C(=O)Nc3n[nH]c4ccc(C(=O)NC5(c6cccs6)CC5)cc34)cc2)CC1 [Example 49, 3-(4-(4-Methylpiperazin-1-yl)benzamido)-N-(1-(thiophen-2-yl)cyclopropyl)-1H-indazole-5-carboxamide]

Source: patent US10294207B2, “Pyrazole derivatives as TNIK, IKKϵ and TBK1 inhibitor and pharmaceutical composition comprising same” (GREEN CROSS CORPORATION, priority 2015, dated 2019)
